Results published in patent US20260347338A1, “PYRIMIDINE/PYRIDINE DERIVATIVES OR SALTS THEREOF AND PHARMACEUTICAL COMPOSITIONS COMPRISING THE SAME” (YUHAN CORPORATION, priority 2023, published 2026).
Counter-ions that a name gives are not always drawn.

biological target: T1, human recombinant HPK1 (Homo sapiens, UniProt Q92918); experiment: Inhibitory activity against human recombinant HPK1 (TR-FRET); assay type: biochemical; details: ULight-p70S6K peptide, ATP at Km, room temperature, 1 hour, 0.32 to 1000 nM compound
T1 construct: purchased BPS Bioscience
How it was run: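 IC50 classes A–D use 10, 50 and 100 nM cut-offs, derived from TR-FRET signal inhibition relative to DMSO controls. Human recombinant HPK1 phosphorylated ULight-p70S6K peptide at Km ATP for 1 h, room temperature, pH 7.4; test range 0.32–1000 nM final, detection with Eu-labelled antibody after EDTA quench.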

T1 sequence (Q92918 whole entry): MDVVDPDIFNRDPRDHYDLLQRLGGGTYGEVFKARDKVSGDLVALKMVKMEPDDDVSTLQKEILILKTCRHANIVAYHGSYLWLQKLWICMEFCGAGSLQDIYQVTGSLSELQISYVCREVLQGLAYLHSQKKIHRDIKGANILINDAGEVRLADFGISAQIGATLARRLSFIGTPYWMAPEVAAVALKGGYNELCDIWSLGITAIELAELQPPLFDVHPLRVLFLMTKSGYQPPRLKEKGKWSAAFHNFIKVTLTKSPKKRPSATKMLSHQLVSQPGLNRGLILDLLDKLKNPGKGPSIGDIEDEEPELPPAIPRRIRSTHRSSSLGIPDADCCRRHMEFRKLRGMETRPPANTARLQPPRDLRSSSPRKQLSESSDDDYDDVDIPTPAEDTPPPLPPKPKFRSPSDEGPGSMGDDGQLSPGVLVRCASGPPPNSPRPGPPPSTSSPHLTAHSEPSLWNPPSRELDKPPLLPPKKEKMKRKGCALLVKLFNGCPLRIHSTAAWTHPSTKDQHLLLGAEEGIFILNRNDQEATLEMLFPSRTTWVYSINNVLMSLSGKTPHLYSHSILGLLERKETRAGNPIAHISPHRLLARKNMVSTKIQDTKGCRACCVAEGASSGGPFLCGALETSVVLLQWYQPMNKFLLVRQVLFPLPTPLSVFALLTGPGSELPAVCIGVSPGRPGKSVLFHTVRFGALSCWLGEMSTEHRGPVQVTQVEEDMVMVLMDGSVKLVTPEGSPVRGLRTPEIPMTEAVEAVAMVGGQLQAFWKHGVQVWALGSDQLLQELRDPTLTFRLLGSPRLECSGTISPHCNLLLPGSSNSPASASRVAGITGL

| IC50 [nM] | Compound |
| --- | --- |
| ≤ 10 | COc1cccc(F)c1-c1nccc(Nc2cc(N3CC[C@@H](N)[C@H](C)C3)c(-c3cnn(C(F)F)c3)cn2)n1 [Example 268, N-(4-((3R,4R)-4-amino-3-methylpiperidin-1-yl)-5-(1-(difluoromethyl)-1H-pyrazol-4-yl)pyridin-2-yl)-2-(2-fluoro-6-methoxyphenyl)pyrimidin-4-amine hydrochloride] |
| ≤ 10 | COc1cccc(F)c1-c1nccc(Nc2cc(N3CCC[C@H](N)C3)c(-c3cnn(C4CC(C)(C)OC(C)(C)C4)c3)cn2)n1 [Example 269, (S)-N-(4-(3-aminopiperidin-1-yl)-5-(1-(2,2,6,6-tetramethyltetrahydro-2H-pyran-4-yl)-1H-pyrazol-4-yl)pyridin-2-yl)-2-(2-fluoro-6-methoxyphenyl)pyrimidin-4-amine hydrochloride] |
| ≤ 10 | COc1cccc(F)c1-c1nccc(Nc2cc(N3CCC[C@H](N)C3)c(-c3ccc4c(c3)NC(=O)C(C)O4)cn2)n1 (stereo partly drawn) [Example 270, 6-(4-((S)-3-aminopiperidin-1-yl)-6-((2-(2-fluoro-6-methoxyphenyl)pyrimidin-4-yl)amino)pyridin-3-yl)-2-methyl-2H-benzo[b][1,4]oxazin-3(4H)-one hydrochloride] |
| ≤ 10 | COc1cccc(F)c1-c1nccc(Nc2cc(N3CCC[C@H](C)C3)c(-c3cnn(C(F)F)c3)cn2)n1 [Example 271, (S)-N-(5-(1-(difluoromethyl)-1H-pyrazol-4-yl)-4-(3-methylpiperidin-1-yl)pyridin-2-yl)-2-(2-fluoro-6-methoxyphenyl)pyrimidin-4-amine] |
| ≤ 10 | COc1cccc(F)c1-c1nccc(Nc2cc(N3CCC[C@H](CF)C3)c(-c3cnn(C(F)F)c3)cn2)n1 [Example 272, (S)-N-(5-(1-(difluoromethyl)-1H-pyrazol-4-yl)-4-(3-(fluoromethyl)piperidin-1-yl)pyridin-2-yl)-2-(2-fluoro-6-methoxyphenyl)pyrimidin-4-amine] |
| ≤ 10 | COc1cccc(F)c1-c1nccc(Nc2cc(N3CCC[C@@H](C(F)F)C3)c(-c3cnn(C(F)F)c3)cn2)n1 [Example 273, (R)-N-(5-(1-(difluoromethyl)-1H-pyrazol-4-yl)-4-(3-(difluoromethyl)piperidin-1-yl)pyridin-2-yl)-2-(2-fluoro-6-methoxyphenyl)pyrimidin-4-amine] |
| ≤ 10 | COc1cccc(F)c1-c1nccc(Nc2cc(N3CCC[C@H](N)C3)c(-c3cnc4c(c3)OCC(=O)N4C)cn2)n1 [Example 274, (S)-7-(4-(3-aminopiperidin-1-yl)-6-((2-(2-fluoro-6-methoxyphenyl)pyrimidin-4-yl)amino)pyridin-3-yl)-4-methyl-2H-pyrido[3,2-b][1,4]oxazin-3(4H)-one hydrochloride] |
| ≤ 10 | COc1cccc(F)c1-c1nccc(Nc2cc(N3CCC[C@H](N)C3)c(-c3cnc4c(c3)OCC(=O)N4)cn2)n1 [Example 275, (S)-7-(4-(3-aminopiperidin-1-yl)-6-((2-(2-fluoro-6-methoxyphenyl)pyrimidin-4-yl)amino)pyridin-3-yl)-2H-pyrido[3,2-b][1,4]oxazin-3(4H)-one hydrochloride] |
| ≤ 10 | COc1cccc(F)c1-c1nccc(Nc2cc(N3CCC[C@H](N)C3)c(-c3cnc4c(c3)CCC(=O)N4)cn2)n1 [Example 276, (S)-6-(4-(3-aminopiperidin-1-yl)-6-((2-(2-fluoro-6-methoxyphenyl)pyrimidin-4-yl)amino)pyridin-3-yl)-3,4-dihydro-1,8-naphthyridin-2(1H)-one hydrochloride] |
| ≤ 10 | COc1cccc(F)c1-c1nccc(Nc2cc(N3CCC[C@H](N)C3)c(-c3cnn(C4COC4)c3)cn2)n1 [Example 277, (S)-N-(4-(3-aminopiperidin-1-yl)-5-(1-(oxetan-3-yl)-1H-pyrazol-4-yl)pyridin-2-yl)-2-(2-fluoro-6-methoxyphenyl)pyrimidin-4-amine hydrochloride] |
| ≤ 10 | COC(=O)C(C)(C)n1cc(-c2cnc(Nc3ccnc(-c4c(F)cccc4OC)n3)cc2N2CCC[C@H](N)C2)cn1 [Example 278, methyl (S)-2-(4-(4-(3-aminopiperidin-1-yl)-6-((2-(2-fluoro-6-methoxyphenyl)pyrimidin-4-yl)amino)pyridin-3-yl)-1H-pyrazol-1-yl)-2-methylpropanoate hydrochloride] |
| ≤ 10 | COc1cccc(F)c1-c1nccc(Nc2cc(N3CCC[C@H](N)C3)c(-c3ccc(NC(C)=O)cc3)cn2)n1 [Example 279, (S)-N-(4-(4-(3-aminopiperidin-1-yl)-6-((2-(2-fluoro-6-methoxyphenyl)pyrimidin-4-yl)amino)pyridin-3-yl)phenyl)acetamide hydrochloride] |
| ≤ 10 | COc1cccc(F)c1-c1nccc(Nc2cc(N3CCC[C@H](N)C3)c(-c3cccc(C(=O)N(C)C)c3)cn2)n1 [Example 280, (S)-3-(4-(3-aminopiperidin-1-yl)-6-((2-(2-fluoro-6-methoxyphenyl)pyrimidin-4-yl)amino)pyridin-3-yl)-N,N-dimethylbenzamide hydrochloride] |
| ≤ 10 | COc1cccc(F)c1-c1nccc(Nc2cc(N3CCC[C@H](N)C3)c(-c3ccc(OC(F)(F)F)c(C)c3)cn2)n1 [Example 281, (S)-N-(4-(3-aminopiperidin-1-yl)-5-(3-methyl-4-(trifluoromethoxy)phenyl)pyridin-2-yl)-2-(2-fluoro-6-methoxyphenyl)pyrimidin-4-amine hydrochloride] |
| ≤ 10 | COc1cccc(F)c1-c1nccc(Nc2cc(N3CCC[C@H](N)C3)c(-c3ccc(F)c(C)c3)cn2)n1 [Example 282, (S)-N-(4-(3-aminopiperidin-1-yl)-5-(4-fluoro-3-methylphenyl)pyridin-2-yl)-2-(2-fluoro-6-methoxyphenyl)pyrimidin-4-amine hydrochloride] |
| ≤ 10 | COc1cccc(F)c1-c1nccc(Nc2cc(N3CCC[C@H](N)C3)c(-c3cnn(C4CCNCC4)c3)cn2)n1 [Example 283, (S)-N-(4-(3-aminopiperidin-1-yl)-5-(1-(piperidin-4-yl)-1H-pyrazol-4-yl)pyridin-2-yl)-2-(2-fluoro-6-methoxyphenyl)pyrimidin-4-amine hydrochloride] |
| ≤ 10 | COc1cccc(F)c1-c1nccc(Nc2cc(N3CCC[C@H](N)C3)c(-c3cc(C)c(OC(C)C)c(C)c3)cn2)n1 [Example 284, (S)-N-(4-(3-aminopiperidin-1-yl)-5-(4-isopropoxy-3,5-dimethylphenyl)pyridin-2-yl)-2-(2-fluoro-6-methoxyphenyl)pyrimidin-4-amine hydrochloride] |
| ≤ 10 | COc1cccc(F)c1-c1nccc(Nc2cc(N3CCC[C@H](N)C3)c(-c3cc(C)c(OC)c(C)c3)cn2)n1 [Example 285, (S)-N-(4-(3-aminopiperidin-1-yl)-5-(4-methoxy-3,5-dimethylphenyl)pyridin-2-yl)-2-(2-fluoro-6-methoxyphenyl)pyrimidin-4-amine hydrochloride] |
| ≤ 10 | COc1cccc(F)c1-c1nccc(Nc2cc(N3CCC[C@H](N)C3)c(-c3ccc(N4CCOCC4)cc3)cn2)n1 [Example 286, (S)-N-(4-(3-aminopiperidin-1-yl)-5-(4-morpholinophenyl)pyridin-2-yl)-2-(2-fluoro-6-methoxyphenyl)pyrimidin-4-amine hydrochloride] |
| ≤ 10 | COc1cccc(F)c1-c1nccc(Nc2cc(N3CCC[C@H](N)C3)c(-c3ccc(N4CCOCC4)c(C)c3)cn2)n1 [Example 287, (S)-N-(4-(3-aminopiperidin-1-yl)-5-(3-methyl-4-morpholinophenyl)pyridin-2-yl)-2-(2-fluoro-6-methoxyphenyl)pyrimidin-4-amine hydrochloride] |
| ≤ 10 | COc1cccc(F)c1-c1nccc(Nc2cc(N3CCC[C@H](N)C3)c(-c3ccc(C(=O)N4CCN(CCO)CC4)cc3)cn2)n1 [Example 288, (S)-(4-(4-(3-aminopiperidin-1-yl)-6-((2-(2-fluoro-6-methoxyphenyl)pyrimidin-4-yl)amino)pyridin-3-yl)phenyl)(4-(2-hydroxyethyl)piperazin-1-yl)methanone hydrochloride] |
| ≤ 10 | COc1cccc(F)c1-c1nccc(Nc2cc(N3CCC[C@H](N)C3)c(-c3ccc(C(=O)N[C@H]4CC[C@H](O)CC4)cc3)cn2)n1 [Example 289, 4-(4-((S)-3-aminopiperidin-1-yl)-6-((2-(2-fluoro-6-methoxyphenyl)pyrimidin-4-yl)amino)pyridin-3-yl)-N-((1r,4S)-4-hydroxycyclohexyl)benzamide hydrochloride] |
| ≤ 10 | COc1cccc(F)c1-c1nccc(Nc2cc(N3CCC[C@H](N)C3)c(-c3ccc(C(=O)N(C)C)c(F)c3)cn2)n1 [Example 290, (S)-4-(4-(3-aminopiperidin-1-yl)-6-((2-(2-fluoro-6-methoxyphenyl)pyrimidin-4-yl)amino)pyridin-3-yl)-2-fluoro-N,N-dimethylbenzamide hydrochloride] |
| ≤ 10 | COc1cccc(F)c1-c1nccc(Nc2cc(N3CCC[C@H](N)C3)c(-c3cccc(C(C)=O)c3)cn2)n1 [Example 291, (S)-1-(3-(4-(3-aminopiperidin-1-yl)-6-((2-(2-fluoro-6-methoxyphenyl)pyrimidin-4-yl)amino)pyridin-3-yl)phenyl)ethan-1-one hydrochloride] |
| ≤ 10 | COc1cccc(F)c1-c1nccc(Nc2cc(N3CCC[C@H](N)C3)c(-c3ccc(F)c(Cl)c3)cn2)n1 [Example 292, (S)-N-(4-(3-aminopiperidin-1-yl)-5-(3-chloro-4-fluorophenyl)pyridin-2-yl)-2-(2-fluoro-6-methoxyphenyl)pyrimidin-4-amine hydrochloride] |
| ≤ 10 | COc1cccc(F)c1-c1nccc(Nc2cc(N3CCC[C@H](N)C3)c(-c3ccc(F)c(C(F)(F)F)c3)cn2)n1 [Example 293, (S)-N-(4-(3-aminopiperidin-1-yl)-5-(4-fluoro-3-(trifluoromethyl)phenyl)pyridin-2-yl)-2-(2-fluoro-6-methoxyphenyl)pyrimidin-4-amine hydrochloride] |
